Results published in US20260232671A1, “PHARMACEUTICAL COMPOSITION FOR LOCAL ADMINISTRATION, PREPARATION METHOD THEREFOR, AND USE THEREOF” (priority 2023, published 2026).

How the values were obtained:
[1] = Preparation of solutions: clear or turbid phenomenon in solvent mixtures; assay type: physicochemical
[2] = system: freshly excised skin samples from Bama miniature pigs; experiment: IVPT, Franz diffusion cells, Example 12; assay type: in vitro ADME; details: penetration enhancer 7% in 1% solution, compared with the solution in the blank group
Description: The penetrability of the API in the topical formulations was studied using freshly excised skin samples from Bama miniature pigs mounted in Franz diffusion cells. The fresh skin of Bama miniature pigs was depilated and then stored at −20° C. for later use. On the morning of the experiment, the skin was taken out and thawed, and after the transepidermal water loss value of the skin was detected to be less than 30, the skin was ready for use. The skin was cut to a size suitable for placing the pig skin samples between the donor and receiver compartments, and the pig skin samples were placed between the donor and receiver compartments of the Franz diffusion cell. About 60 mg of the sample was evenly applied to the pig skin. The opening of the Franz cell was 3.14 cm^2. 8.0 mL of a receiver solution was used. At 0.5 h, 2 h, […], and 24 h, 1.0 mL of the sample was removed and replaced with a new receiver solution. At 24 h, the skin was collected. The pig skin was treated, the epidermal and dermis layers were separated and extracted with a skin extract solution, and the residual drug amount, drug concentrations in the epidermal and dermis layers, and drug penetration concentration were detected by HPLC.

state of the solutions ([1]; concentration of the active ingredient 1%, dimethyl sulfoxide replaced with ethanol, propylene glycol, polyethylene glycol 400, or dimethylformamide) | Phenomenon ([1]; mass %: active ingredient 1, diethylene glycol monoethyl ether 40, dimethylformamide 45, propylene glycol 14) | Phenomenon ([1]; mass %: active ingredient 1, diethylene glycol monoethyl ether 40, ethanol 50, propylene glycol 9) | Phenomenon ([1]; mass %: active ingredient 1, diethylene glycol monoethyl ether 40, polyethylene glycol 400 59) | Phenomenon ([1]; mass %: active ingredient 1, diethylene glycol monoethyl ether 40, propylene glycol 59) | Phenomenon ([1]; mass %: active ingredient 1, dimethyl sulfoxide 10, diethylene glycol monoethyl ether 40, polyethylene glycol 400 49) | Phenomenon ([1]; mass %: active ingredient 1, dimethyl sulfoxide 35, diethylene glycol monoethyl ether 10, glycerol 20, propylene glycol 34) | Phenomenon ([1]; mass %: active ingredient 1, dimethyl sulfoxide 35, diethylene glycol monoethyl ether 30, glycerol 20, propylene glycol 14) | Phenomenon ([1]; mass %: active ingredient 1, dimethyl sulfoxide 40, diethylene glycol monoethyl ether 15, glycerol 20, propylene glycol 14, water 10) | Phenomenon ([1]; mass %: active ingredient 1, dimethyl sulfoxide 40, diethylene glycol monoethyl ether 15, propylene glycol 14, water 30) | Phenomenon ([1]; mass %: active ingredient 1, dimethyl sulfoxide 40, diethylene glycol monoethyl ether 35, propylene glycol 14, water 10) | Phenomenon ([1]; mass %: active ingredient 1, dimethyl sulfoxide 40, diethylene glycol monoethyl ether 40, glycerol 5, propylene glycol 14) | Phenomenon ([1]; mass %: active ingredient 1, dimethylformamide 45, propylene glycol 54) | Phenomenon ([1]; mass %: active ingredient 1, ethanol 45, propylene glycol 54) | Phenomenon ([1]; mass %: active ingredient 1.5, dimethyl sulfoxide 45, diethylene glycol monoethyl ether 40, propylene glycol 13.5) | Phenomenon ([1]; mass %: active ingredient 2, dimethyl sulfoxide 45, diethylene glycol monoethyl ether 40, propylene glycol 12) | Molecule | preparation of a clear solution ([1]; concentration of dimethyl sulfoxide maintained at a high level, addition of a trace amount of water) | skin penetration-enhancing effect [2]
suspensions | Turbid | Turbid | Turbid | Turbid | Turbid | Clear | Clear | Turbid | Turbid | Turbid | Clear | Turbid | Turbid | Clear | Clear | COc1nsc(NC(=O)N2C[C@H]3CC(N(C)c4ncnc5[nH]ccc45)C[C@H]3C2)n1 (stereo partly drawn) [Active ingredient in free base form, (3aR,5s,6aS)—N-(3-methoxy-1,2,4-thiadiazol-5-yl)-5-(methyl(7H-pyrrolo[2,3-d]pyrimidin-4-yl)amino)hexahydrocyclopenta[c]pyrrole-2(1H)-carboxamide] | failed to prepare a clear solution above 1% concentration | 
 |  |  |  |  |  |  |  |  |  |  |  |  |  |  |  | CC(O)C(=O)O (stereo not shown) [lactic acid] |  | relatively good skin penetration-enhancing effect
 |  |  |  |  |  |  |  |  |  |  |  |  |  |  |  | propylene glycol monocaprylate |  | certain skin penetration-enhancing effect
